From PMC4967898, “Peptides interfering with protein-protein interactions in the ethylene signaling pathway delay tomato fruit ripening” (Scientific Reports, 2016)
Entries after “also recorded” stand apart in the source; their conditions may differ.

B1: tomato ethylene receptor protein LeETR1 (receptor, UniProt Q41342 1-754, looked up)
chain: MGSLLRMNRLLSSIVESCNCIIDPQLPADDLLMKYQYISDFFIALAYFSIPVELIYFVKKSAVFPYRWVLVQFGAFIVLCGATHLINLWTFNMHTRNVAIVMTTPKALTALVSCITALMLVHIIPDLLSVKTRELFLKKKAAQLDREMGIIRTQEETGRHVRMLTHEIRSTLDRHTILKTTLVELGRTLALEECALWMPTRTGLELQLSYTLRHQNPVGLTVPIQLPVINQVFGTNHVVKISPNSPVARLRPAGKYMPGEVVAVRVPLLHLSNFQINDWPELSTKRYALMVLMLPSDSARQWHVHELELVEVVADQVAVALSHAAILEESMRARDLLMEQNVALDLARREAEMAVRARNDFLAVMNHEMRTPMHAIIALSSLLQETDLTPEQRLMVETILKSSNLLATLINDVLDLSRLEDGSLQLDIGTFNLHALFREVHSLIKPIASVKKLFVTLSLSSDLPEYVIGDEKRLMQILLNVVGNAVKFSKEGNVSISAFVAKSDSLRDPRAPEFFAVPSENHFYLRVQIKDTGIGITPQDIPNLFSKFTQSQALATTNSGGTGLGLAICKRFVNLMEGHIWIESEGLGKGSTAIFIIKLGIPGRANESKLPFVTKLPANHTQMSFQGLKVLVMDENGVSRMVTKGLLTHLGCDVTTVGSRDECLRVVTHEHKVVIMDVSMQGIDCYEVAVVIHERFGKRHGRPLIVALTGNTDRVTKENCMRVGMDGVILKPVSVYKMRSVLSELLEHGVVLES
modifications: Alexa Fluor 488 succinimidyl-ester label (MST with LeEIN2, FRET assay); Alexa Fluor 488-Maleimide label (MST with NOP-1); non-labeled in the reverse MST titration
notes: ethylene receptor ETR1 of tomato (LeETR1); Membrane protein kept in 0.015% Fos-Choline-16 for MST; also called tomato ETR1; tomato receptor
B2: NOP-1 (LKRYKRRL-NH2) (peptide)
peptide: H-LKRYKRRL-NH2
notes: the motif is fully conserved in tomato EIN2; also called NLS-based peptide; source: synthetic peptide (Molecular Proteomics Laboratory of the BMFZ Düsseldorf, >90% purity)

Legend:
[1] = system: green, immature tomato fruits; assay: Tomato fruit ripening after inhibitor treatment; type: in vivo, tomato (Solanum pimpinellifolium); conditions: for delay in maturation of tomato fruits: 200 μM, all tested inhibitors and all applications of NOP-1 (injection, incubation, surface application), documented for 20 days, three fruits per application
Source text: To further investigate the potential of NOP-1 for agricultural applications, we tested the effect of the NOP-1 peptide on tomato fruit ripening in comparison to other known inhibitors of ethylene responses. To this end we tested […] (MCP) and aminoethoxyvinylglycine (AVG). MCP is a known inhibitor of ethylene signaling blocking ethylene binding at the receptor proteins, whereas AVG blocks ethylene production in the plant by competitive inhibition of ACC synthases. To monitor inhibition of the fruit ripening process, we treated green, immature tomato fruits with 200 μM NOP-1, MCP or AVG, respectively and documented the fruit ripening process for 20 days. Figure 3 compares the effect of the different inhibitor treatments on tomato fruits to controls lacking the inhibitory treatment that contain either buffer alone or a random sequence control peptide (ROP-1). […] The bioassays underline the high inhibitory potential of NOP-1 on the ripening process compared to the well-known and efficient inhibitors of ethylene responses.
Inhibitor-treatment of tomato fruits
Aminoethoxyvinyl glycine (AVG) was purchased from Sigma-Aldrich, St Louis, MO (purity ~95%). SmartFresh^SM (AgroFresh, Spring House, PA) was used as sugar-based powder formulation of 1-MCP. Concentration of 1-MCP was calculated according to the percentage of active ingredient (0.14%) and release from the SmartFresh^SM powder. For comparison concentration of all inhibitors are expressed in terms of molarity. For treatment of tomato fruits with NOP-1, AVG and MCP, inhibitors were dissolved in the FRET buffer described in the previous section to a final concentration of 200 μM. Green tomato fruits (Solanum pimpinellifolium) from the same estimated developmental stage were harvested from the panicle and water-cleaned. 300 μL of the inhibitor solution was applied onto the tomato surface with a brush and the fruits were air-dried for 30 min. As an alternative application, tomato fruits were plunged into 2 mL of the inhibitor solution and incubated for 30 min in this solution or 200 μL of the peptide-containing solution were carefully injected into the tomato tissue by a hypodermic syringe. Three individual tomato fruits were treated for the different applications of the peptide in order to document the ripening process. After inhibitor-treatment tomato fruits were transferred to a vial closed with aluminum foil and stored in the dark at room temperature. Maturation process was documented every second day for at least 20 days. For measurement of ethylene production, green tomato fruits were treated as described above.

[2] = molecular target: T1, tomato EIN2-ETR1 complex (Solanum lycopersicum, UniProt Q41342); assay: FRET assay of LeEIN2-LeETR1 complex formation; type: biochemical; conditions: FRET assay; 100 μM peptide where stated; LeETR1-Alexa Fluor 488 and LeEIN2-Alexa Fluor 568, 3 μM each
T1 construct: made in house; host or cells: E. coli BL21(DE3) with pRARE (LeEIN2 fragment); E. coli (LeETR1)
T1 sequence (Q41342 1-754): B1 chain
Source text: (§1) For this purpose, we made use of a fluorescence resonance energy transfer (FRET)-based in vitro assay, originally established for the respective Arabidopsis signaling proteins. Recombinant ethylene proteins LeETR1 and LeEIN2^462–1316 were labeled with fluorescent Alexa dyes[36] as described in the Methods section. LeETR1 was labeled with Alexa Fluor 488, while LeEIN2^462–1316 was labeled with Alexa Fluor 568. As the emission spectrum of the donor fluorophore partially overlaps with the excitation spectrum of the acceptor fluorophore, the dyes form a FRET pair and energy transfer from the donor to the acceptor fluorophore is possible when both probes get in close proximity. […] Formation of the complex is monitored by FRET from the donor molecule Alexa Fluor 488 to the acceptor molecule Alexa Fluor 568. Processes or molecules that prevent complex formation result in a reduced FRET from the donor to the acceptor, which is detected as reduced acceptor fluorescence at the emission maximum.
Quantitative analysis of inhibitory peptides on ETR1-EIN2 complex by FRET
For the FRET assay, recombinant LeETR1 was labeled with Alexa Fluor 488 succinimidyl-ester and LeEIN2^462–1316 was labeled with Alexa Fluor 568 succinimidyl-ester (both Life Technologies) in a buffer containing 50 mM potassium phosphate pH 8.0, 300 mM NaCl and 5% (v/v) glycerol following manufacturer’s protocol (MolecularProbes Protein Labeling Kit). Labeled proteins were transferred in FRET buffer containing 50 mM Tris-HCl pH 8.0, 300 mM NaCl, 0.05% (v/v) Tween 20, 5% (v/v) glycerol and mixed at a final concentration of 3.0 μM each. […] The FRET-based binding assay was carried out in 384-well microplates using an Infinite M200 Pro microplate reader (Tecan) at 455 nm excitation wavelength. Emission spectra were detected between 565 nm to 645 nm. FRET efficiencies were calculated from the maximal emission in the absence and in the presence of the supplied peptides and the half maximal inhibitor concentration IC50 was calculated as previously described.

[3] = Fluorescence of the dyes on their own (FRET control); conditions: 100 μM peptide; free dyes
Source text: as §1
(b) Calculation of IC50 value for NOP-1. Data were obtained in the FRET-assay in presence of increasing concentrations of NOP-1 peptide. […] (c) Determination of Kd value of NOP-1 binding to LeETR1 based on MST is illustrated. MST-signal is plotted against the NOP-1 concentration. […] All data (a,b,c) represent the mean +/− standard deviation.

[4] = molecular target: T2, C-terminal part of tomato EIN2 (LeEIN2^462–1316) (tomato, UniProt Q6Q2C1 462-1316, unlabeled in the MST titration of labeled LeETR1; Alexa Fluor 488 label in the reverse MST titration; Alexa Fluor 568 succinimidyl-ester label in the FRET assay); assay: MST; 0.4 μM LeETR1-Alexa Fluor 488 titrated with LeEIN2 462-1316 (4.69 nM to 9.6 μM); 50 mM Tris-HCl pH 8.0, 300 mM NaCl, 0.015% Fos-Choline-16; Monolith NT.115, 80% MST power, triplicates; conditions: both partners purified
T2 construct: the N-terminal membrane domain (aa 1-461) was deleted from the full-length cDNA; The purified protein was detected with an anti-polyhistidine antibody; no tag removal is described; also called C-terminal domain of tomato EIN2; source: E. coli BL21(DE3) with pRARE, purified (HisTrap FF, PD-10 desalting)
T2 sequence (looked up): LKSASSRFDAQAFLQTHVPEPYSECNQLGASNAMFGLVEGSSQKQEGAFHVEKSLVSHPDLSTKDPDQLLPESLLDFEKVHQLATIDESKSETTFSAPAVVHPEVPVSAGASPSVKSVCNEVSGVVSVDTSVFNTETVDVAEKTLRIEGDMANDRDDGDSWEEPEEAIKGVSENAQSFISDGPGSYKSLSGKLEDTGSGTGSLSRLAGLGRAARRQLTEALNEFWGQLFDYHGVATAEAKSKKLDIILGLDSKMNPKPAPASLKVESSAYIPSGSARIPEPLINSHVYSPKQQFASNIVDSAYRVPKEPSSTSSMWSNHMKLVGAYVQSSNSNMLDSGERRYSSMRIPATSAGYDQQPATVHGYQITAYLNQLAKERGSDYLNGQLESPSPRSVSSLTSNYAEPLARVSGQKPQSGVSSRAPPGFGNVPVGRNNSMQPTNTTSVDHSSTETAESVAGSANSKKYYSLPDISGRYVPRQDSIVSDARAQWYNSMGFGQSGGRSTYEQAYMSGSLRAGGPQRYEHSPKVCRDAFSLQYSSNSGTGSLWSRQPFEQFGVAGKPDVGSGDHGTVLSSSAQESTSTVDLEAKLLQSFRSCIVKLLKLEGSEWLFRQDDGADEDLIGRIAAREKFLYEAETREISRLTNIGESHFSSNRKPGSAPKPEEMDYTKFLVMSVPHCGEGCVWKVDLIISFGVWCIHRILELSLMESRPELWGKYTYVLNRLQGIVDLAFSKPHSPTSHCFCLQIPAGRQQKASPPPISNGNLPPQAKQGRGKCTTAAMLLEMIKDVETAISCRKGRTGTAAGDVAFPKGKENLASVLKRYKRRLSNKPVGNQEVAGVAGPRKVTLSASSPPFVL

[5] = molecular target: T2, C-terminal part of tomato EIN2 …; assay: MST; LeEIN2 462-1316 labeled with Alexa Fluor 488 titrated with non-labeled LeETR1 (Supplementary Fig. S3); conditions: both partners purified
[6] = molecular target: B1; assay: FRET or BRET; in vitro FRET: LeETR1-Alexa Fluor 488 (donor) and LeEIN2 462-1316-Alexa Fluor 568 (acceptor), 3.0 μM each; 50 mM Tris-HCl pH 8.0, 300 mM NaCl, 0.05% Tween 20, 5% glycerol; proteins pre-incubated with peptides; excitation 455 nm, 384-well plates; conditions: both partners purified
[7] = molecular target: B1; assay: MST; 50 nM LeETR1 labeled with Alexa Fluor 488-Maleimide titrated with NOP-1 (3.8 nM to 31 μM); 50 mM Tris-HCl pH 8.0, 300 mM NaCl, 0.015% Fos-Choline-16; 80% MST power; 1:1 model; conditions: both partners purified

NCCO/C=C/[C@H](N)C(=O)O [AVG, aminoethoxyvinylglycine, reference compound]
delay in maturation of tomato fruits [1]: 10 to 15 days

CC1=CC1 [MCP, 1-methylcyclopropane, reference compound]
delay in maturation of tomato fruits [1]: 10 to 15 days

EFLYMSVN-NH2 [ROP-1, reference compound]
effect on tomato fruit ripening (in words) ([1]; compared with buffer or untreated control, inhibitors at 200 μM): no effect on the ripening process; also recorded: A related delay in ripening was not observed | effect on tomato EIN2-ETR1 complex formation [2]: no effect on tomato EIN2-ETR1 complex formation was observed | effect on fluorescence of the dyes on their own [3]: not affected by the peptides; also recorded: Neither of both peptides affected fluorescence of the free, unlabeled dyes

B1
Kd [4]: 0.619 µM | Kd [5]: 0.651 µM

B2
IC50 [6]: 160 µM | Kd [7]: 0.156 µM
